Values of other authors, collected in publication PMC12251151, “Understanding Anti-Obesity Potential of Four Porphyrin Compounds by Investigating Pancreatic Lipase Inhibition” (Molecules, 2025).

Experiments:
α-amylase = molecular target: α-amylase; set-up: method as in PMID 36603279; conditions: read-out: IC50 inhibiting α-amylase; cited from earlier work
α-glucosidase = molecular target: α-glucosidase; set-up: method as in PMID 36603279; conditions: read-out: IC50 inhibiting α-glucosidase; cited from earlier work

COc1ccc([C@@H]2CC(=O)c3c(O)cc(O)cc3O2)cc1O [Hsp, hesperetin]
IC50 (α-amylase): 115.6 ± 1.1 µM | IC50 (α-glucosidase): 55.2 ± 0.1 µM
